Data: patent publication US7207289B2, “Method of feeding the cattle with feed additives that increases beef production and reduces liver abscess” (Intervet International B.V., priority 2004, dated 2007)

Legend:
cattle = conditions: cited from earlier work
steers and heifers = experiment: Zilpaterol efficacy studies V-0238-0019, V-0238-0020, V-0238-0021 (pooled analysis): liver abscesses and feed intake; type: in vivo, cattle
Source text: All of these cattle had been fed Tylan® up to the last 20 to 40 days on feed at which time Tylan® was removed and cattle were either fed a control diet without Tylan®, Rumensin® or zilpaterol or cattle were fed a treatment diet containing just zilpaterol. While the mechanism by which zilpaterol decreases liver abscess is not fully clear at this time, it seems that zilpaterol functions to decrease liver abscesses by decreasing feed intake. Because the liver abscesses discovered at slaughter are formed during the last ˜60 days or less on feed and this is the same time zilpaterol is fed, a decrease in feed intake would result in a decrease in acid production and possibly a decrease in rumen wall lesions and rumenitis.
Summary of Zilpaterol Efficacy Studies (Pooled Analysis), Study Numbers, V-0238-0019, V-0238-0020, and V-0238-0021 on Liver Abscesses and Feed Intake

steers = experiment: Study V-0238-0017: effects of Rumensin plus Tylan and zilpaterol on liver abscess rates in feedlot steers; type: in vivo, cattle
Source text: In study number V-0238-0017 a total of 3,945 steers were used to test the effects of Rumensin® plus Tylan® and zilpaterol on feedlot performance, liver abscess rates, and carcass traits. The inventors discovered that Tylan® and Rumensin® could be removed from the diet for the last 30 days to feed zilpaterol without negatively affecting liver abscess rates. In fact it was discovered that zilpaterol decreased the incidence of liver abscesses.
Study Number V-0238-0017, Effects of Zilpaterol on Liver Abscesses

Structure (SMILES)	feed intake and dressing percentage (cattle; Laudert and Vogel (1994))	gain and feed to gain ratio (cattle; Laudert and Vogel (1994))	average daily gain (cattle; Potter et al. (1985))	feed intake (cattle; Potter et al. (1985))	liver abscesses being reduced (cattle; cattle treated with Tylan, typical) [%]	Average Daily Dry Matter Intake, lbs. (steers and heifers; pooled analysis of three studies, zilpaterol for the last 20 or 40 days) [lbs.]	% of Livers Condemned for Abscesses (steers and heifers; pooled, 957 animals, Tylan removed for the last 20 to 40 days, diet containing just zilpaterol) [%]	liver abscesses (effect in words) (steers and heifers; steers and heifers supplemented for 20 or 40 days)	Live Abscess, % (steers; 166-day study, 3,945 steers, 10 pens per treatment, zilpaterol fed for the last 30 days on feed) [%]	incidence of liver abscesses (effect in words) (steers; study V-0238-0017, steers)
CC[C@H]1OC(=O)C[C@@H](O)[C@H](C)[C@@H](O[C@@H]2O[C@H](C)[C@@H](O[C@H]3C[C@@](C)(O)[C@@H](O)[C@H](C)O3)[C@H](N(C)C)[C@H]2O)[C@@H](CC=O)C[C@@H](C)C(=O)/C=C/C(C)=C/[C@@H]1CO[C@@H]1O[C@H](C)[C@@H](O)[C@@H](OC)[C@H]1OC [Tylan, Tylosin]	only minor effects	improved	improved	no effect	63 to 71					
CC(C)NC1CCn2c(=O)[nH]c3cccc(c32)C1O (stereo not shown) [Zilpaterol]						18.69	19.1	significantly decreased	13.29	decreased
